Test results published in patent US10253081B2, “Glucagon analogues” (Zealand Pharma A/S, priority 2012, dated 2019).
pEC50: −log10 of the molar value. Read-outs that look alike come from different tables or passages of the source. *1 amine or outer side, *2 acyl side, *3 side chain or, on linkers, in order; H or OH if unused. Where a SMILES comes first, the peptide text is derived from it. Side-chain parts run from the residue outwards. [ ]: non-standard residue; d: D form. The star is where a group is joined. γGlu = O=C(O)[C@H](CCC(=O)[*:2])N[*:1]; Palmitoyl = CCCCCCCCCCCCCCCC(=O)*; Aib = CC(C)(N)C(=O)O

Assays:
[1] = Pharmacokinetic parameters after subcutaneous and intravenous administration to mice; assay type: in vivo; settings: male, mouse, plasma, 20 nmol/kg, C57Bl/6J mice; for half-life: read-out: Terminal half life (converted); for MRT: read-out: Mean Residence Time
Experimental: Pharmacokinetic parameters of the test compounds were determined after subcutaneous and intravenous administration to C57Bl/6J mice.
8 week old male C57Bl/6J mice were obtained from Taconic (Denmark) weighing approximately 20-25 g at time of arrival at the test facility. The mice were caged in European standard cages type III with light cycle of 12-hour dark and 12-hour light (lights on 06.00). Both diet, Altromin 1324 (Altromin, Germany), and water was administered ad libitum during the whole experimental period. The 8-11 week animals were imported to the laboratory at least 7 days before the start up of the experimental procedure in order to assure proper acclimatization. After sampling the mice were euthanized by cervical dislocation.
The compounds were first dissolved in 0.096% aqueous ammonia to a nominal concentration of 2 mg/ml, and then diluted to the desired dosing strength (4 μM) in sterile PBS containing 25 mM phosphate buffer, pH 7.4. Subcutaneous and intravenous injections corresponding to 20 nmol/kg were given. The GLP-1-glucagon dual agonists were administered for subcutaneous dosing in the neck region and via a lateral tail vein for intravenous dosing.
Blood samples (250 μl) were collected from the periorbital plexus at time points 0.5, 2, 4, 6, 12, 16, 20, 24 h for subcutaneous and 10, 30 min, 3, 6, 12, 18, 24 h for intravenous administration into ice-chilled K3EDTA tubes and centrifuged for 5 minutes at 4° C. within 20 minutes of sampling. Plasma (>100 μl) was separated to ice-chilled Micronic tubes, immediately frozen, and kept at −70° C. until analysed for plasma concentration for the respective GLP-1-glucagon compound using LC-MS/MS. Individual plasma concentration-time profiles were analysed by a non-compartmental approach in WinNonLin v6.3 (Pharsight inc, Mountain View, Calif., USA), and the resulting pharmacokinetic parameters determined.

[2] = Oral glucose tolerance test (OGTT); assay type: in vivo, C57BL/6J mice; settings: blood glucose AUC 0-120 min, 10 nmol/kg s.c. 4 h before oral glucose 2 g/kg
Experimental: Male C57BL/6J mice were fasted for 10 h before they received an oral glucose bolus of 2 g/kg body weight. Peptides were dissolved in saline buffered with 25 mM phosphate and administered at a dose of 10 nmol/kg body weight by subcutaneous injection 4 h before the glucose bolus. Control animals received a vehicle injection only. Group size was 7 animals per group. A pre-dose and a pre-glucose (0 min) blood sample were obtained by tail bleeding and blood glucose was measured with a glucometer. Additional samples of tail blood for measuring blood glucose were obtained 15 min, 30 min, 60 min, 90 min and 120 min after the glucose challenge. […] Calculation of AUC was done by the trapezoidal rule without baseline correction. The data are presented as mean±S.E.M. Statistical comparisons were conducted by one-way ANOVA followed by Tukey's post test. Vehicle alone was used as a control.

[3] = target: T1, human glucagon-like peptide 1 receptor (GLP-1R) (Homo sapiens, UniProt P43220); test: GLP-1 receptor efficacy assay (cAMP AlphaScreen, CHO cells); assay type: cell-based; settings: Table 1A; for pEC50: CHO cells expressing human GLP-1-R, cAMP, read-out: EC50 hGLP-1R CHO-K1; for Ratio GLP-1/Glucagon: EC50 [GLP-1R]/EC50 [Glucagon-R]
T1 construct: expressed in transfected cells
Method in brief: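 Stably transfected CHO clones expressing human GLP-1R or glucagon receptor were treated with increasing peptide concentrations for 15 min at room temperature in KRBH containing 0.1 mM IBMX. After lysis, cAMP was quantified by AlphaScreen; EC50 and efficacy relative to GLP-1 or glucagon reference came from curve fitting.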

T1 sequence (P43220 24-463): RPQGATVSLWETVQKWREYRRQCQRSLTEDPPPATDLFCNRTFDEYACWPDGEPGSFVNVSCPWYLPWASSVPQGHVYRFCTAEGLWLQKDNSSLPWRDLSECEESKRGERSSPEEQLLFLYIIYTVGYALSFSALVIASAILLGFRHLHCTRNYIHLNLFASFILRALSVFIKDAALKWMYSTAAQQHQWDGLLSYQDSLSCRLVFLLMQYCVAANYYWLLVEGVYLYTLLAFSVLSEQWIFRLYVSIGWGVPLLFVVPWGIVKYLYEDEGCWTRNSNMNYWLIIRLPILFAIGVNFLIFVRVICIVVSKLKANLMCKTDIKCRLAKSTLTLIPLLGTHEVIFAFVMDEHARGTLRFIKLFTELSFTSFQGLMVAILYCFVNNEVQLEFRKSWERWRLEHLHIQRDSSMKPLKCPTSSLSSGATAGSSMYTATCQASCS

SMILES	clearance ([1]; IV) [mL/min/kg]	half-life ([1]; IV) [h]	Tmax ([1]; SC) [h]	bioavailability ([1]; SC) [%]	MRT ([1]; SC) [h]	half-life ([1]; SC) [h]	AUC (% Ctrl) [2] [% Ctrl]	pEC50 [3]	Ratio GLP-1/Glucagon [3]
CCCCCCCCCCCCCCCC(=O)N[C@@H](CCC(=O)NCCCC[C@H](NC(=O)[C@H](CO)NC(=O)[C@H](CC(=O)O)NC(=O)[C@H](CC(C)C)NC(=O)[C@H](Cc1ccc(O)cc1)NC(=O)[C@H](CCCCN)NC(=O)[C@H](CO)NC(=O)[C@H](Cc1ccc(O)cc1)NC(=O)[C@H](CC(=O)O)NC(=O)[C@H](CO)NC(=O)[C@@H](NC(=O)[C@H](Cc1ccccc1)NC(=O)[C@@H](NC(=O)CNC(=O)[C@H](CCC(N)=O)NC(=O)[C@H](CO)NC(=O)[C@@H](N)Cc1c[nH]cn1)[C@@H](C)O)[C@@H](C)O)C(=O)N[C@@H](C)C(=O)N[C@@H](C)C(=O)N[C@@H](CCC(=O)O)C(=O)N[C@@H](CC(=O)O)C(=O)N[C@@H](Cc1ccccc1)C(=O)N[C@H](C(=O)N[C@@H](CCC(=O)O)C(=O)N[C@@H](Cc1c[nH]c2ccccc12)C(=O)N[C@@H](CC(C)C)C(=O)N[C@@H](CC(C)C)C(=O)N[C@@H](CCCNC(=N)N)C(=O)N[C@@H](C)C(N)=O)C(C)C)C(=O)O [Compound 7, H-HSQGTFTSDYSKYLDS-K(Hexadecanoyl-isoGlu)-AAEDFVEWLLRA-NH2] (H-HSQGTFTSDYSKYLDSK([γGlu-Palmitoyl])AAEDFVEWLLRA-NH2)	0.22	5.5	4	75	12.8	8.6	57	9.57	0.60
CCCCCCCCCCCCCCCC(=O)N[C@@H](CCC(=O)NCCCC[C@H](NC(=O)[C@H](CO)NC(=O)[C@H](CC(=O)O)NC(=O)[C@H](CC(C)C)NC(=O)[C@H](Cc1ccc(O)cc1)NC(=O)[C@H](CCCCN)NC(=O)[C@H](CO)NC(=O)[C@H](Cc1ccc(O)cc1)NC(=O)[C@H](CC(=O)O)NC(=O)[C@H](CO)NC(=O)[C@@H](NC(=O)[C@H](Cc1ccccc1)NC(=O)[C@@H](NC(=O)CNC(=O)[C@H](CCC(N)=O)NC(=O)[C@H](CO)NC(=O)[C@@H](N)Cc1c[nH]cn1)[C@@H](C)O)[C@@H](C)O)C(=O)N[C@@H](C)C(=O)N[C@@H](C)C(=O)N[C@@H](Cc1c[nH]cn1)C(=O)N[C@@H](CC(=O)O)C(=O)N[C@@H](Cc1ccccc1)C(=O)N[C@H](C(=O)N[C@@H](CCC(=O)O)C(=O)N[C@@H](Cc1c[nH]c2ccccc12)C(=O)N[C@@H](CC(C)C)C(=O)N[C@@H](CC(C)C)C(=O)N[C@@H](CCCNC(=N)N)C(=O)N[C@@H](C)C(=O)O)C(C)C)C(=O)O [Compound 3, H-HSQGTFTSDYSKYLDS-K(Hexadecanoyl-isoGlu)-AAHDFVEWLLRA-OH] (H-HSQGTFTSDYSKYLDSK([γGlu-Palmitoyl])AAHDFVEWLLRA-OH)	0.192	4.1	6	52	9.8	3.9	70	9.04	2.60
CCCCCCCCCCCCCCCC(=O)N[C@@H](CCC(=O)NCCCC[C@H](NC(=O)[C@H](CO)NC(=O)[C@H](CC(=O)O)NC(=O)[C@H](CC(C)C)NC(=O)[C@H](Cc1ccc(O)cc1)NC(=O)[C@H](CCCCN)NC(=O)[C@H](CO)NC(=O)[C@H](Cc1ccc(O)cc1)NC(=O)[C@H](CC(=O)O)NC(=O)[C@H](CO)NC(=O)[C@@H](NC(=O)[C@H](Cc1ccccc1)NC(=O)[C@@H](NC(=O)CNC(=O)[C@H](CCC(N)=O)NC(=O)[C@H](CO)NC(=O)[C@@H](N)Cc1c[nH]cn1)[C@@H](C)O)[C@@H](C)O)C(=O)N[C@@H](C)C(=O)N[C@@H](C)C(=O)N[C@@H](Cc1c[nH]cn1)C(=O)N[C@@H](CC(=O)O)C(=O)N[C@@H](Cc1ccccc1)C(=O)N[C@H](C(=O)N[C@@H](CCC(=O)O)C(=O)N[C@@H](Cc1c[nH]c2ccccc12)C(=O)N[C@@H](CC(C)C)C(=O)N[C@@H](CC(C)C)C(=O)N[C@@H](CO)C(=O)N[C@@H](C)C(=O)O)C(C)C)C(=O)O [Compound 2, H-HSQGTFTSDYSKYLDS-K(Hexadecanoyl-isoGlu)-AAHDFVEWLLSA-OH] (H-HSQGTFTSDYSKYLDSK([γGlu-Palmitoyl])AAHDFVEWLLSA-OH)	0.185	5	4	59	11.2	5.1	66	9.11	2.48
CCCCCCCCCCCCCCCC(=O)N[C@@H](CCC(=O)NCCCC[C@H](NC(=O)[C@H](CCC(=O)O)NC(=O)[C@H](CC(=O)O)NC(=O)[C@H](CC(C)C)NC(=O)[C@H](Cc1ccc(O)cc1)NC(=O)[C@H](CCCCN)NC(=O)[C@H](CO)NC(=O)[C@H](Cc1ccc(O)cc1)NC(=O)[C@H](CC(=O)O)NC(=O)[C@H](CO)NC(=O)[C@@H](NC(=O)[C@H](Cc1ccccc1)NC(=O)[C@@H](NC(=O)CNC(=O)[C@H](CCC(N)=O)NC(=O)C(C)(C)NC(=O)[C@@H](N)Cc1c[nH]cn1)[C@@H](C)O)[C@@H](C)O)C(=O)N[C@@H](C)C(=O)N[C@@H](C)C(=O)N[C@@H](CCCCN)C(=O)N[C@@H](CC(=O)O)C(=O)N[C@@H](Cc1ccccc1)C(=O)N[C@H](C(=O)N[C@@H](CCC(=O)O)C(=O)N[C@@H](Cc1c[nH]c2ccccc12)C(=O)N[C@@H](CC(C)C)C(=O)N[C@@H](CCC(=O)O)C(=O)N[C@@H](CO)C(=O)N[C@@H](C)C(N)=O)[C@@H](C)CC)C(=O)O [Compound 15, H-H-Aib-QGTFTSDYSKYLDE-K(Hexadecanoyl-isoGlu)-AAKDFIEWLESA-NH2]	0.128	6	6	97	17.4	10.5	42	9.72	0.31
CCCCCCCCCCCCCCCC(=O)N[C@@H](CCC(=O)NCCCC[C@H](NC(=O)[C@H](CO)NC(=O)[C@H](CC(=O)O)NC(=O)[C@H](CC(C)C)NC(=O)[C@H](Cc1ccc(O)cc1)NC(=O)[C@H](CCCCN)NC(=O)[C@H](CO)NC(=O)[C@H](Cc1ccc(O)cc1)NC(=O)[C@H](CC(=O)O)NC(=O)[C@H](CO)NC(=O)[C@@H](NC(=O)[C@H](Cc1ccccc1)NC(=O)[C@@H](NC(=O)CNC(=O)[C@H](CCC(N)=O)NC(=O)C(C)(C)NC(=O)[C@@H](N)Cc1c[nH]cn1)[C@@H](C)O)[C@@H](C)O)C(=O)N[C@@H](C)C(=O)N[C@@H](C)C(=O)N[C@@H](Cc1c[nH]cn1)C(=O)N[C@@H](CC(=O)O)C(=O)N[C@@H](Cc1ccccc1)C(=O)N[C@H](C(=O)N[C@@H](CCC(=O)O)C(=O)N[C@@H](Cc1c[nH]c2ccccc12)C(=O)N[C@@H](CC(C)C)C(=O)N[C@@H](CC(C)C)C(=O)N[C@@H](CO)C(=O)O)C(C)C)C(=O)O [Compound 1, H-H-Aib-QGTFTSDYSKYLDS-K(Hexadecanoyl-isoGlu)-AAHDFVEWLLS-OH] (H-H[Aib]QGTFTSDYSKYLDSK([γGlu-Palmitoyl])AAHDFVEWLLS-OH)	0.17	5.2	4	52	12.6	6.2	66	9.27	0.60
